From patent publication US4113856A, “Antibiotic mm 13902” (Beecham Group Limited, priority 1974, dated 1978) come the findings set out here.

Entries after “also recorded” stand apart in the source; their conditions may differ. Where a name gives a salt, the structure may show the parent alone. Where only a bound is given, the exact number is not on record here.

Data set [1] has as its system Klebsiella aerogenes. Description: synergy with benzylpenicillin. Format: cell-based. Conditions: extracts from cellulose thin layer. An excerpt: (§1) In a further experiment, the two substances were separated on a cellulose thin layer developed with isopropanol:water (8:2) and extracted from the cellulose with phosphate buffer.
The test system of another data set is carbonic anhydrase. Put plainly: enzyme inhibition (general enzyme poison check). Format: biochemical. To be noted: at concentrations in excess of those required to inhibit E. coli β-lactamase.
In data set [2] the test system is Escherichia coli, Klebsiella aerogenes, Proteus mirabilis, Proteus morganii and Staphylococcus aureus Russell. Description: synergy with ampicillin (in words). It is filed as cell-based, bacteria (various species). Conditions: mixed with ampicillin.
In another data set the test system is Escherichia coli 311. Description: bioautography zone diameter (Table 4). Format: cell-based. Conditions: TLC cellulose, butanol/isopropyl alcohol/water 7:7:6.
In a further data set the test system is Enterobacter aerogenes. Description: bioautography zone diameter (Table 4). To be noted: TLC cellulose, butanol/isopropyl alcohol/water 7:7:6. It is filed as cell-based.
A further data set deals with urease. Put plainly: enzyme inhibition (general enzyme poison check). It is filed as biochemical. Conditions: at concentrations in excess of those required to inhibit E. coli β-lactamase.
The subject of data set [3] is Staphylococcus aureus(Oxford). Description: bioautography zone diameter (Table 4). It is filed as cell-based. Conditions: TLC cellulose, butanol/isopropyl alcohol/water 7:7:6.
Data set [4] relates to Escherichia coli β-lactamase. Put plainly: β-lactamase inhibition (in words). Format: biochemical.
From the text: as §1

In data set [5] the test system is B. subtilis, Staphylococcus aureus, Escherichia coli, Salmonella typhimurium, Proteus mirabilis, Proteus morganii and Klebsiella aerogenes. Put plainly: detection by bioautography after TLC on cellulose (in words). Format: cell-based, bacteria (various species).
For a further data set, the system named is dopa decarboxylase. Put plainly: enzyme inhibition (general enzyme poison check). It is filed as biochemical. Conditions: at concentrations in excess of those required to inhibit E. coli β-lactamase.
The test system of another data set is Bacillus subtilis. Put plainly: bioautography zone diameter (Table 4). Format: cell-based. Conditions: TLC cellulose, butanol/isopropyl alcohol/water 7:7:6.
Another data set concerns chymotrypsin. Put plainly: enzyme inhibition (general enzyme poison check). Format: biochemical. To be noted: at concentrations in excess of those required to inhibit E. coli β-lactamase.
In data set [6] the test system is β-lactamase of Klebsiella aerogenes. Description: β-lactamase inhibition (in words). Format: biochemical.
The test system of data set [7] is Staphylococcus aureus(Russell). Put plainly: bioautography zone diameter (Table 4). It is filed as cell-based. Conditions: TLC cellulose, butanol/isopropyl alcohol/water 7:7:6.
Data set [8] deals with β-lactamase of Staphylococcus aureus. Description: β-lactamase inhibition (in words). It is filed as biochemical.
The subject of data set [9] is Klebsiella aerogenes. Put plainly: bioautography zone diameter (Table 4). It is filed as cell-based. Conditions: TLC cellulose, butanol/isopropyl alcohol/water 7:7:6.
The test system of data set [10] is various species including strains of Staphylococcus aureus, Bacillus subtilis, Escherichia coli, Klebsiella aerogenes, Proteus mirabilis. Put plainly: antibacterial activity against various species (in words). It is filed as cell-based, bacteria (various species). Conditions: sodium salt.
The next data set relates to trypsin. Put plainly: enzyme inhibition (general enzyme poison check). It is filed as biochemical. To be noted: at concentrations in excess of those required to inhibit E. coli β-lactamase.
For another data set, the system named is Proteus morganii. Put plainly: bioautography zone diameter (Table 4). It is filed as cell-based. Conditions: TLC cellulose, butanol/isopropyl alcohol/water 7:7:6.
A further data set relates to monoamine oxidase. Put plainly: enzyme inhibition (general enzyme poison check). It is filed as biochemical. To be noted: at concentrations in excess of those required to inhibit E. coli β-lactamase.
The subject of a further data set is Escherichia coli 10418. Description: bioautography zone diameter (Table 4). Format: cell-based. To be noted: TLC cellulose, butanol/isopropyl alcohol/water 7:7:6.
The next data set is described as follows: stability. It is filed as physicochemical.
The subject of a further data set is Proteus morganii F. Put plainly: MIC by serial dilution in nutrient agar (Table 2). It is filed as cell-based. Conditions: ampicillin alone.
For another data set, the system named is E. coli JT39. Put plainly: MIC by serial dilution in nutrient agar (Table 2). To be noted: ampicillin alone. Format: cell-based.
The subject of a further data set is Proteus rettgeri R110. Put plainly: MIC by serial dilution in nutrient agar (Table 2). Conditions: ampicillin alone. It is filed as cell-based.
In another data set the test system is Proteus mirabilis 889. Description: MIC by serial dilution in nutrient agar (Table 2). Format: cell-based. To be noted: ampicillin alone.
A further data set relates to E. coli B11. Put plainly: MIC by serial dilution in nutrient agar (Table 2). Format: cell-based. Conditions: ampicillin alone.
Another data set concerns Proteus mirabilis 247. Put plainly: MIC by serial dilution in nutrient agar (Table 2). Format: cell-based. Conditions: ampicillin alone.
The test system of a further data set is Staph.aureus (Russell). Put plainly: MIC by serial dilution in nutrient agar (Table 2). Format: cell-based. To be noted: ampicillin alone.
For another data set, the system named is E. coli JT417. Description: MIC by serial dilution in nutrient agar (Table 2). Format: cell-based. To be noted: ampicillin alone.
In data set [11] the test system is Klebsiella aerogenes IP282. Description: MIC by serial dilution in nutrient agar (Table 2). To be noted: ampicillin alone. It is filed as cell-based.
The subject of the next data set is Staph.aureus (Russell H). Put plainly: MIC by serial dilution in nutrient agar (Table 2). Format: cell-based. Conditions: ampicillin alone.
A short description of data set [12]: activity in arbitrary units per mg. To be noted: Example 3. How it is done:
The material produced above was arbitrarily assigned an activity of 340 l/ml. Assays were determined as described in Description 3.

The nature of a further data set: solubility. Conditions: sodium salt.

As to `CC(=O)N/C=C/[S+]([O-])C1=C(C(=O)O)N2C(=O)C(C(C)OS(=O)(=O)O)C2C1` (centres unmarked) [MM 4550A], the synergy with benzylpenicillin result in the data set with Klebsiella aerogenes [1] is “shown to be synergistic with benzylpenicillin”. Further, in the data set with carbonic anhydrase, the “inhibition of carbonic anhydrase” value is on record as “does not inhibit”. Also, in [2], the synergy with ampicillin result is recorded as “synergyses its activity”. Besides, the “Zone Diameter on Bioautography” value in the data set on Escherichia coli 311 is 17.5 mm; in the data set with Enterobacter aerogenes, 6.5 mm; in [3], 13.0 mm; in the data set on Bacillus subtilis, 24.0 mm; in [7], 12.0 mm; in the data set with Klebsiella aerogenes [9], 20.0 mm. Also, the figures for the “Zone Diameter on Bioautography” value in the data set on Proteus morganii and in the data set with Escherichia coli 10418 were 16.0 mm and 20.0 mm, respectively. The inhibition of urease entry in the data set with urease is “does not inhibit”. Further, the β-lactamase inhibition entry in [4] is reported as “possesses enzyme inhibitory activity; also recorded: shown to be inhibitors”; in data set [6] it was “possesses enzyme inhibitory activity”; in data set [8] it was “possesses enzyme inhibitory activity”. Further, the detection by bioautography result in data set [5] is reported as “may be detected by bioautography on a variety of organisms”. Also, the “inhibition of dopa decarboxylase” value in the data set on dopa decarboxylase is recorded as “does not inhibit”. Also, in the data set with chymotrypsin, the inhibition of chymotrypsin entry is on record as “does not inhibit”. The antibacterial activity entry in [10] is given as “possesses antibacterial activity”. Further, the inhibition of trypsin entry in the data set on trypsin is given as “does not inhibit”. Further, in the data set on monoamine oxidase, the “inhibition of monoamine oxidase” value is on record as “does not inhibit”.

With `CC(=O)NC=CSC1=C(C(=O)O)N2C(=O)C(C(C)OS(=O)(=O)O)C2C1` (centres unmarked) [monobasic salts of MM 13902], the stability entry in the data set “stability” is on record as “not sufficiently stable”.

As to `CC1(C)S[C@@H]2[C@H](NC(=O)[C@H](N)c3ccccc3)C(=O)N2[C@H]1C(=O)O` [Ampicillin], the minimum inhibitory concentration in the data set with Proteus morganii F is on record as 50; in the data set with E. coli JT39 it was > 500; in the data set with Proteus rettgeri R110, 250; in the data set on Proteus mirabilis 889, > 500; with E. coli B11, > 500; in the data set with Proteus mirabilis 247 it was > 500. Moreover, the minimum inhibitory concentration with Staph.aureus (Russell) was 250; with E. coli JT417, 250; in data set [11], 50; in the data set on Staph.aureus (Russell H) it was > 500.

`CC(=O)N/C=C/SC1=C(C(=O)O)N2C(=O)C(C(C)OS(=O)(=O)O)C2C1` (centres unmarked) [MM 13902]: the synergy with benzylpenicillin entry in the data set with Klebsiella aerogenes [1] is “shown to be synergistic with benzylpenicillin”. In data set [12] (partially purified salt, brown solid), the activity was 37,000 units/mg. Moreover, the synergy with ampicillin entry in [2] is reported as “synergizes its activity”. The “Zone Diameter on Bioautography” value in the data set with Enterobacter aerogenes was “No Zone”; in [3], 4.0 mm; in data set [7], 4.0 mm; with Klebsiella aerogenes [9], 20.0 mm. In data set [4], the β-lactamase inhibition result is “shown to be inhibitors”. Moreover, the stability entry in the data set “stability” was “tends to be unstable when in the unsalted acid form; also recorded: not sufficiently stable”. The detection by bioautography entry in data set [5] is recorded as “may be detected by bioautography on a variety of organisms”. Also, in [10], the antibacterial activity entry is on record as “possessed antibacterial activity”. Besides, the “solubility in chloroform, diethylether and hydrocarbons” value in “solubility” was “substantially insoluble”. In addition, in “solubility”, the solubility in methanol result was “soluble”. Moreover, the solubility in water entry in the data set “solubility” is “highly soluble”.

`CC(=O)NC=CSC1=C(C(=O)O)N2C(=O)C(C(C)OS(=O)(=O)O)C2C1` (centres unmarked) [di-sodium salt of MM 13902]: the activity in data set [12] (di-sodium salt after cellulose chromatography, yellowish powder) is 73,000 units/mg.
